The test has as its target T1, Recombinant human KIF18A (1-467 His-tagged) (Homo sapiens, UniProt Q8NI77).
T1 construct: Recombinant human KIF18A (1-467 His-tagged) protein; His
Description: KIF18A Enzyme Assay: microtubule-stimulated ATPase activity (ADP-Glo). The settings on record: 30 nM KIF18A, 30 μg/mL pig microtubules, ATP 75 μM (Km), ADP-Glo luminescence. In kind it is biochemical. Summed up: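 Measures microtubule-stimulated ATPase activity as ADP formed, detected by luminescence. Compounds were tested as 2-fold serial dilutions over 22 points. IC50 values came from four-parameter logistic fits.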
(In general: ADP-Glo turns the ADP formed in a reaction into a luminescent signal.)
T1 sequence (Q8NI77 1-467): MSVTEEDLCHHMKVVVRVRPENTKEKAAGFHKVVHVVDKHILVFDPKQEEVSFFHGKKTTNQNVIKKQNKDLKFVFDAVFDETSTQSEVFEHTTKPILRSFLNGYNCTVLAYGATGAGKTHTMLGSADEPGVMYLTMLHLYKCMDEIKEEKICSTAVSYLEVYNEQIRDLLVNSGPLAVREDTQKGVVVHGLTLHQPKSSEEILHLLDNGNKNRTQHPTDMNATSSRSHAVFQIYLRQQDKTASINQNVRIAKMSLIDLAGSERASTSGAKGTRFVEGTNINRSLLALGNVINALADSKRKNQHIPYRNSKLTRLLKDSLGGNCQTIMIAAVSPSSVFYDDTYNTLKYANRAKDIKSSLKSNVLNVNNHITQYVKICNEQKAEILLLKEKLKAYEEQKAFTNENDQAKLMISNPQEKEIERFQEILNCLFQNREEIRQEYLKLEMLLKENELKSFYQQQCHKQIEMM
T1 sequence (P02550 whole entry partner): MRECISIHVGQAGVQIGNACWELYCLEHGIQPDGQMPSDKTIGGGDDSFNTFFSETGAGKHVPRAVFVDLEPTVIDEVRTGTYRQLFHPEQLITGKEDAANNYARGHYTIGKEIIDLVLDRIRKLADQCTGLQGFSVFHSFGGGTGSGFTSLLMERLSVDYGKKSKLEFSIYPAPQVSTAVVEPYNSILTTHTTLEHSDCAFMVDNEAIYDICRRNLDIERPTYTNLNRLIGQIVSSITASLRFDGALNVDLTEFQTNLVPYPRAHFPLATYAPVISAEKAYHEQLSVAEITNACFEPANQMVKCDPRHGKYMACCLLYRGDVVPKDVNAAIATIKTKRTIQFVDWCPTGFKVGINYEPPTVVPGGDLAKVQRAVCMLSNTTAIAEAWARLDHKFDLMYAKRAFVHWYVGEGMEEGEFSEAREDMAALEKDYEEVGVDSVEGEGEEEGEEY
T1 sequence (P02554 whole entry partner): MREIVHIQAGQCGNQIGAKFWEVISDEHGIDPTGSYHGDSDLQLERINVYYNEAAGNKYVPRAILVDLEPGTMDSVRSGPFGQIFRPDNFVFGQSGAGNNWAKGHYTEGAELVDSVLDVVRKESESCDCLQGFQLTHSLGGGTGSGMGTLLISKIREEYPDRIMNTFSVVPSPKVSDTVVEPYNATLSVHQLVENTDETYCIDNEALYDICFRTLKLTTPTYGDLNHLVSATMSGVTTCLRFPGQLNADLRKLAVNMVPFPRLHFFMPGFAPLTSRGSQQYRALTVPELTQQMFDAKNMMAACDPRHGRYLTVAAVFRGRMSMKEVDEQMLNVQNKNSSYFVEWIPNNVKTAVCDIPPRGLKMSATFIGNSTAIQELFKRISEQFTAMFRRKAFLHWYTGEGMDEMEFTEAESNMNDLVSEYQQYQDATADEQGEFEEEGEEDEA
In general, IC50 refers to the midpoint of a concentration-inhibition curve. As for `Cc1ccc(NC(=O)c2ccc(NS(=O)(=O)CCO)cc2N2CCC3(CC2)CC3)nc1N1CCOCC1` [Example 18, 4-((2-Hydroxyethyl)sulfonamido)-N-(5-methyl-6-morpholinopyridin-2-yl)-2-(6-azaspiro[2.5]octan-6-yl)benzamide], the IC50 worked out at 12 nM.

On to `C[C@@H]1CN(c2cccc(NC(=O)c3ccc(NS(=O)(=O)C(F)(F)F)cc3N3CCC4(CC3)CC4)n2)CCO1` [Example 7-41, (R)-N-(6-(2-Methylmorpholino)pyridin-2-yl)-2-(6-azaspiro[2.5]octan-6-yl)-4-((trifluoromethyl)sulfonamido)benzamide], for which the IC50 was found to be 207 nM.

On to `CC(C)(C)S(=N)(=O)c1cccc(NC(=O)c2ccc(NS(=O)(=O)CCO)cc2N2CCC3(CC2)CC3)n1` (stereo not drawn) [Example 26, 4-((2-Hydroxyethyl)sulfonamido)-N-(6-(2-methylpropan-2-ylsulfonimidoyl)pyridin-2-yl)-2-(6-azaspiro[2.5]octan-6-yl)benzamide], for which the IC50 came out at 363 nM.

Regarding `Cc1cc(NC(=O)c2ccc(NS(C)(=O)=O)cc2N2CCC3(CC2)CC3)nc(N2CC(F)(F)C2)c1` [Example 7-27, N-(6-(3,3-Difluoroazetidin-1-yl)-4-methylpyridin-2-yl)-4-(methylsulfonamido)-2-(6-azaspiro[2.5]octan-6-yl)benzamide], the half-inhibitory concentration (IC50) came to 14 nM.

For the compound `C[C@@H]1CN(c2cccc(NC(=O)c3ccc(N4CCCS4(=O)=O)cc3N3CCC4(CC3)CC4)n2)CCO1` [Example 7-3, (R)-4-(1,1-Dioxidoisothiazolidin-2-yl)-N-(6-(2-methylmorpholino)pyridin-2-yl)-2-(6-azaspiro[2.5]octan-6-yl)benzamide], the IC50 is 76 nM.

With `CCC(CO)NS(=O)(=O)c1ccc(C(=O)Nc2cccc(N3CCO[C@H](C)C3)n2)c(N2CCC3(CC2)CC3)c1` (stereo partly drawn) [Example 1-9, 4-(N-(1-Hydroxybutan-2-yl)sulfamoyl)-N-(6-((R)-2-methylmorpholino)pyridin-2-yl)-2-(6-azaspiro[2.5]octan-6-yl)benzamide], the IC50 stood at 120 nM.

With `N#Cc1ccc(NC(=O)c2ccc(NS(=O)(=O)CCO)cc2N2CCC3(CC2)CC3)nc1N1CCC(F)(F)CC1` [Example 21, N-(5-Cyano-6-(4,4-difluoropiperidin-1-yl)pyridin-2-yl)-4-((2-hydroxyethyl)sulfonamido)-2-(6-azaspiro[2.5]octan-6-yl)benzamide], the IC50 stood at 25 nM.

As for `C[C@@H]1CN(c2cccc(NC(=O)c3ccc(S(=O)(=O)NC(C)(C)CO)cc3N3CCC4(CC3)CC4)n2)CCO1` [Example 1-4, (R)-4-(N-(1-Hydroxy-2-methylpropan-2-yl)sulfamoyl)-N-(6-(2-methylmorpholino)pyridin-2-yl)-2-(6-azaspiro[2.5]octan-6-yl)benzamide], the IC50 was 46 nM.

With `C[C@@H]1CN(c2cccc(NC(=O)c3ccc(S(=O)(=O)CC(C)(C)O)cc3N3CCC4(CC3)CC4)n2)CCO1` [Example 2-6, (R)-4-((2-Hydroxy-2-methylpropyl)sulfonyl)-N-(6-(2-methylmorpholino)pyridin-2-yl)-2-(6-azaspiro[2.5]octan-6-yl)benzamide], the IC50 turned out to be 110 nM.

Regarding `C[C@H](CO)S(=O)(=O)Nc1ccc(C(=O)Nc2cccc(OCCC(F)(F)F)n2)c(N2CCC3(CC2)CC3)c1` (single isomer, unassigned) [Example 8-1], the IC50 is 16 nM.

With `C[C@@H]1CN(c2cccc(NC(=O)c3ccc(NS(=O)(=O)C(C)(C)C)cc3N3CCC4(CC3)CC4)n2)CCO1` [Example 7-16, (R)-4-((1,1-Dimethylethyl)sulfonamido)-N-(6-(2-methylmorpholino)pyridin-2-yl)-2-(6-azaspiro[2.5]octan-6-yl)benzamide], the IC50 was determined as 67 nM.

Regarding `Cc1cc(NC(=O)c2ccc(NS(=O)(=O)CCO)cc2N2CCC3(CC2)CC3)nc(OCC(C)(C)O)c1` [Example 17-2, N-(6-(2-Hydroxy-2-methylpropoxy)-4-methylpyridin-2-yl)-4-((2-hydroxyethyl)sulfonamido)-2-(6-azaspiro[2.5]octan-6-yl)benzamide], the IC50 is 59 nM.

As for `Cc1cc(NC(=O)c2ccc(S(=N)(=O)C3CC3)cc2N2CCC3(CC2)CC3)nc(N2CC(F)(F)C2)c1` (single isomer, unassigned) [Example 28-1, 2-(6-Azaspiro[2.5]octan-6-yl)-4-(S-cyclopropylsulfonimidoyl)-N-(6-(3,3-difluoro-1-azetidinyl)-4-methyl-2-pyridinyl)benzamide], the IC50 was found to be 71 nM.

As to `Cc1cc(NC(=O)c2ccc(NS(=O)(=O)[C@@H](C)CO)cc2N2CCC3(CC2)CC3)nc(N2CC(F)(F)C2)c1` (single isomer, unassigned) [Example 9-6], the IC50 is 57 nM.

Regarding `C[C@@H]1CN(c2cccc(NC(=O)c3ccc(NS(=O)(=O)[C@@H](C)CO)cc3N3CCC4(CC3)CC4)n2)CCO1` (single isomer, unassigned) [Example 9-16], the IC50 amounted to 48 nM.

For the compound `Cc1ccc(NC(=O)c2ccc(NS(=O)(=O)CCO)cc2N2CCC3(CC2)CC3)nc1N1CCC(F)(F)CC1` [Example 22, N-(6-(4,4-Difluoropiperidin-1-yl)-5-methylpyridin-2-yl)-4-((2-hydroxyethyl)sulfonamido)-2-(6-azaspiro[2.5]octan-6-yl)benzamide], the concentration for half-maximal inhibition (IC50) was found to be 41 nM.

As to `Cc1cc(NC(=O)c2ccc(S(=O)(=O)NC3(C)COC3)cc2N2CCC3(CC2)CC3)nc(C(C)(C)O)c1` [Example 4-18, N-(6-(2-Hydroxypropan-2-yl)-4-methylpyridin-2-yl)-4-(N-(3-methyloxetan-3-yl)sulfamoyl)-2-(6-azaspiro[2.5]octan-6-yl)benzamide], the IC50 was 89 nM.

For `C[C@@H]1CN(c2cccc(NC(=O)c3ccc(S(=N)(=O)C4CC4)cc3N3CCC4(CC3)CC4)n2)CCO1` (single isomer, unassigned) [Example 12-1], the IC50 was determined as 85 nM.

For `Cc1cc(NC(=O)c2ccc(NS(=O)(=O)C3CC3)cc2N2CCC3(CC2)CC3)nc(N2CC(F)(F)C2)c1` [Example 7-34, 4-(Cyclopropanesulfonamido)-N-(6-(3,3-difluoroazetidin-1-yl)-4-methylpyridin-2-yl)-2-(6-azaspiro[2.5]octan-6-yl)benzamide], the IC50 stood at 41 nM.

Regarding `CCS(=O)(=O)Nc1ccc(C(=O)Nc2cccc(N3CCO[C@H](C)C3)n2)c(N2CCC3(CC2)CC3)c1` [Example 7-37, (R)-4-(Ethylsulfonamido)-N-(6-(2-methylmorpholino)pyridin-2-yl)-2-(6-azaspiro[2.5]octan-6-yl)benzamide], the IC50 is 50 nM.

Regarding `Cc1cc(NC(=O)c2ccc(S(=N)(=O)C3CC3)cc2N2CCC3(CC2)CC3)nc(N2CCO[C@H](C)C2)c1` (stereo in doubt) [Example 29-2, 2-(6-Azaspiro[2.5]octan-6-yl)-4-(R-cyclopropylsulfonimidoyl)-N-(4-methyl-6-((2R)-2-methyl-4-morpholinyl)-2-pyridinyl)benzamide], the IC50 is 59 nM.

Regarding `Cc1cc(NC(=O)c2ccc(NS(=O)(=O)[C@H](C)CO)cc2N2CCC3(CC2)CC3)nc(N2CCC(F)(F)CC2)c1` (single isomer, unassigned) [Example 9-8], the IC50 stood at 38 nM.

Consider `C[C@@H]1CN(c2cccc(NC(=O)c3ccc(S(=O)(=O)N4CC(C)(C)C4)cc3N3CCC4(CC3)CC4)n2)CCO1` [Example 1-11, (R)-4-((3,3-Dimethylazetidin-1-yl)sulfonyl)-N-(6-(2-methylmorpholino)pyridin-2-yl)-2-(6-azaspiro[2.5]octan-6-yl)benzamide], for which the concentration for half-maximal inhibition (IC50) amounted to 566 nM.

Take `C[C@@H]1CN(c2cccc(NC(=O)c3ccc(NS(=O)(=O)CCC(F)(F)F)cc3N3CCC4(CC3)CC4)n2)CCO1` [Example 7-14, (R)-N-(6-(2-Methylmorpholino)pyridin-2-yl)-2-(6-azaspiro[2.5]octan-6-yl)-4-((3,3,3-trifluoropropyl)sulfonamido)benzamide]: the IC50 was found to be 343 nM.

With `Cc1cc(NC(=O)c2ccc(NS(=O)(=O)CCO)cc2N2CCC3(CC2)CC3)nc(C2CC(F)(F)C2)c1` [Example 7-1, N-(6-(3,3-Difluorocyclobutyl)-4-methylpyridin-2-yl)-4-((2-hydroxyethyl)sulfonamido)-2-(6-azaspiro[2.5]octan-6-yl)benzamide], the IC50 is 45 nM.

As for `C[C@@H]1CN(c2cccc(NC(=O)c3ccc(S(=O)(=O)N4CC(C#N)C4)cc3N3CCC4(CC3)CC4)n2)CCO1` [Example 1-13, (R)-4-((3-Cyanoazetidin-1-yl)sulfonyl)-N-(6-(2-methylmorpholino)pyridin-2-yl)-2-(6-azaspiro[2.5]octan-6-yl)benzamide], the IC50 is 209 nM.

For the compound `CC1(S(=O)(=O)Nc2ccc(C(=O)Nc3cccc(N4CCC(C#N)CC4)n3)c(N3CCC4(CC3)CC4)c2)CC1` [Example 3-21, N-(6-(4-Cyanopiperidin-1-yl)pyridin-2-yl)-4-((1-methylcyclopropane)-1-sulfonamido)-2-(6-azaspiro[2.5]octan-6-yl)benzamide], the IC50 came out at 91 nM.

Regarding `C[C@@H]1CN(c2cccc(NC(=O)c3ccc(NS(=O)(=O)CCF)cc3N3CCC4(CC3)CC4)n2)CCO1` [Example 7-35, (R)-4-((2-Fluoroethyl)sulfonamido)-N-(6-(2-methylmorpholino)pyridin-2-yl)-2-(6-azaspiro[2.5]octan-6-yl)benzamide], the 50% inhibitory concentration (IC50) worked out at 24 nM.

For `CC(C)(O)c1cccc(NC(=O)c2ccc(S(C)(=O)=O)cc2N2CCC3(CC2)CC3)n1` [Example 4-7, N-(6-(2-Hydroxypropan-2-yl)pyridin-2-yl)-4-(methylsulfonyl)-2-(6-azaspiro[2.5]octan-6-yl)benzamide], the IC50 was 315 nM.

As for `CC(C)(O)c1cccc(NC(=O)c2ccc(NS(=O)(=O)C3(C)CC3)cc2N2CCC3(CC2)CC3)n1` [Example 4-1, N-(6-(2-Hydroxypropan-2-yl)pyridin-2-yl)-4-((1-methylcyclopropane)-1-sulfonamido)-2-(6-azaspiro[2.5]octan-6-yl)benzamide], the IC50 came out at 128 nM.

Source of the values: patent US12459932B2, “KIF18A inhibitors” (AMGEN INC., priority 2018, dated 2025).
